Results as given in patent US20220226293A1, “TREATMENTS OF ANGIOEDEMA” (KALVISTA PHARMACEUTICALS LIMITED, priority 2019, published 2022).

What was measured:
[1] = background, literature and labels; cited from earlier work
plasma prekallikrein = assay: Phase 1 SAD: ex vivo DXS-stimulated cleavage of plasma prekallikrein, Wes immunoassay; design: species or system human; conditions: 600 mg orally in capsules, up to 12 hrs post-dose
Source text: (§1) DXS-stimulated cleavage of plasma prekallikrein and Factor XII (FXII) were quantified by capillary-based immunoassay on the Wes System (ProteinSimple) analogously.

[2] = tested on: HK cleavage in undiluted plasma; assay: DXS-activated cleavage of HK in undiluted plasma (immunoblot); type: biochemical, human; conditions: 300 nM PKa inhibitor, 20 min incubation with DXS
Protocol: DXS-activated cleavage of HK in undiluted plasma was performed in the absence or presence of 300 nM PKa inhibitor and quantified by SDS-PAGE gel electrophoresis, using 7.5% Criterion TGX Precast gels (Biorad). Transfer was made onto Immunobilon-FL PVDF membrane. Image analysis was done using the LICOR imaging system. Mouse monoclonal anti-HK antibody (MAB15692, R&D systems) was used for traditional immunoblotting. Data presented as % of HK remaining after 20 min incubation with DXS compared to HK levels in unactivated plasma (Table 1).

[3] = tested on: HK cleavage in undiluted citrated human plasma; assay: Protection of HK from PKa-mediated cleavage in DXS-stimulated HAE and control plasma (WES immunoassay); type: biochemical; conditions: HAE and healthy control plasma stimulated with dextran sulfate
Protocol: High molecular weight kininogen (HK) cleavage in undiluted citrated human plasma was induced by contact system activation with dextran sulfate (DXS, Sigma #31395-10G; 6.25 μg/ml) on wet ice. […] HAE plasma was obtained from HAE subjects (n=6) and C1-inhibitor deficiency was confirmed by western blotting. Protection of HK from PKa mediated cleavage in DXS-stimulated whole undiluted plasma was then determined by two methods; traditional western blotting and a semi-automated capillary-based immunoassay.
Capillary-based immunoassay on the WES System (ProteinSimple):
Preparation of samples: Combine one part 5× fluorescent master mix with four parts of the 1:200 plasma sample. Vortex to mix. Heat the samples+fluorescent master mix and the biotinylated ladder at 95° C. for 5 minutes, vortex, and load onto the WES plate. Monoclonal anti-human HK antibody was used for this chemiluminescence-based detection method using the Wes System (ProteinSimple).
Analysis: Collect the peak area measurement obtained in the Compass software (cbz file) for the full-length HK molecular weight of the respective time-point sample with DXS-induced activation. The peak area is defined as the area calculated for the spectral peak profile for HK. To measure the plasma kallikrein inhibition by the compound, the percent full-length HK detected was calculated.

Factor XII (FXII) = assay: Phase 1 SAD: ex vivo DXS-stimulated cleavage of Factor XII / generation of FXIIa, Wes immunoassay; design: species or system human; conditions: 600 mg orally in capsules, up to 12 hrs post-dose
Source text: as §1

HK cleavage = assay: Phase 1 SAD: ex vivo DXS-stimulated cleavage of HK, Wes capillary immunoassay; design: species or system human; conditions: 600 mg orally in capsules, up to 12 hrs post-dose
Protocol: DXS-stimulated cleavage of HK, in undiluted plasma was quantified by capillary-based immunoassay on the Wes System (ProteinSimple) using monoclonal anti-HK antibody and chemiluminescence-based detection. Plasma kallikrein mediated HK cleavage in undiluted citrated human plasma was induced by contact system activation with DXS (6.25 μg/ml) at 4° C. in selected samples from the SAD phase.

[4] = Phase 1 SAD and food effect study: safety and tolerability; type: in vivo, human; conditions: phase I trial, healthy males
Source text: (§2) This study was a randomized, double-blind, placebo-controlled single ascending dose (SAD) and crossover studies for food effect and capsule/tablet formulations.

[5] = Phase 1 multiple dose study: safety, tolerability, ECG; type: in vivo, human; conditions: healthy adults
Protocol: This is a phase 1, double-blind, placebo-controlled, multiple-dose, multiple-cohort study to evaluate safety and tolerability of the compound as well as of the ECG effects of the compound formulated as 100 mg Film Coated Tablets in healthy adult male and female subjects.
During the study, oral doses of 600 mg of the compound as Film Coated Tablets (six 100 mg tablets) or 6 matching placebo tablets will be administered once every 8 hours (Cohort 1) every 4 hours (Cohort 2), or every 2 hours (Cohort 3 and 4) to healthy adult male and female subjects up to a total dose of 1800 mg. In Cohorts 1, 2 and 3, 6 subjects will receive the compound as 100 mg Film Coated Tablets and 2 subjects will receive the placebo for a total of 8 subjects per cohort. In Cohort 4, 12 subjects will receive the compound as 100 mg Film Coated Tablets and 6 subjects will receive the placebo for a total of 18 subjects.
A Holter monitor will be attached to each subject in order to continuously record ECGs. The monitor will be attached 1 hour before the first dose and will remain attached until after the final blood sample collection. The electrodes for the Holter monitor will be checked by a member of the clinic staff at appropriate intervals to ensure they are attached.

[6] = target: T1, plasma kallikrein catalytic activity (Homo sapiens, UniProt P03952); assay: Phase 1 SAD / food effect: ex vivo PKa catalytic activity in DXS-stimulated undiluted plasma
T1 construct: from tissue; host or cells: undiluted plasma of healthy male study participants after oral dosing, stimulated ex vivo with dextran sulfate
Protocol: as §2
PD measurements were determined in dextran sulfate (DXS) stimulated undiluted plasma using a fluorogenic enzyme assay and capillary based HK cleavage immunoassay.
The time until appearance of detectable amidolytic enzyme activity in DXS-stimulated plasma (lag time) was calculated from the catalytic activity assay. The detection sensitivity of the rate of catalytic activity in plasma based on using a Spark (Tecan) fluorimeter is a fluorescence increase to reach 1ΔF unit/sec.

[7] = Phase 1 SAD: plasma pharmacokinetics (LC MS/MS); type: in vivo, human
Protocol: Samples for pharmacokinetic (PK) and PD assessment were taken at repeated intervals over 48 hours.
Plasma samples used for PK assessment were analysed using a validated liquid chromatography tandem mass spectrometry (LC MS/MS) method.

[8] = target: PKa in DXS-activated plasma (Homo sapiens, UniProt P03952); assay: Catalytic activity of PKa in dextran sulfate-activated plasma; type: biochemical; conditions: read-out: IC50 plasma enzyme
Protocol: Catalytic activity of PKa in dextran sulfate-activated (DXS, Sigma; 10 μg/ml) plasma (1:4 diluted or undiluted, VisuCon-F control plasma, Affinity Biologicals Inc) was determined by the time-dependent hydrolysis of fluorogenic substrate.

[9] = target: T2, plasma kallikrein-kinin pathway enzyme activity in pre-activated plasma (Homo sapiens, UniProt P03952); assay: Inhibition of enzyme activity of pre-activated undiluted plasma (compound added after DXS); type: biochemical; conditions: added 3.5 minutes post DXS; compound 300, 1000, 3000 nM; C1-INH 3000 nM
T2 construct: from tissue
Protocol: The ability of the compound to inhibit the enzyme activity of pre-activated plasma was assessed by addition of the compound after DXS stimulation. Aliquots of plasma (20 μL) were mixed with a 2.5 μL solution containing […] fluorogenic substrate (H-DPro-Phe-Arg-AFC) and a 2.5 μL solution of dextran sulphate (DXS; 100 μg/mL) which acted as an activator of the plasma kallikrein-kinin pathway. Enzyme activity was immediately measured by monitoring the accumulation of fluorescence liberated from the substrate by substrate cleavage over 16 minutes. At 3.5 minutes post DXS addition 5 μl of inhibitors or water control are were added into each well. The compound was tested at concentrations of 300, 1000 and 3000 nM. C1-INH at a concentration of 3000 nM and vehicle controls were also included.

purified PKa = purified PKa (Homo sapiens, UniProt P03952); assay: Rate of formation of the enzyme-inhibitor complex (Kon); type: biochemical
Protocol: The rate of formation of the enzyme-inhibitor complex (Kon) was determined using purified PKa rapidly mixed with a solution containing fluorogenic substrate and a concentration range of inhibitor. The time-dependent establishment of inhibition was then used to calculate the rate of formation of the enzyme-inhibitor complex for each concentration of inhibitor. The Kon was calculated by plotting the rate of inhibition versus the inhibitor concentration. Data in Table 1 are presented in μM^−1 sec^−1.

Human plasma kallikrein = target: T3, Human plasma kallikrein (Homo sapiens, UniProt P03952); assay: Plasma kallikrein inhibitory activity in vitro, purified enzyme, fluorogenic substrate; type: biochemical; conditions: 25° C., substrate H-DPro-Phe-Arg-AFC
T3 construct: purchased Protogen
Protocol: Human plasma kallikrein (Protogen) was incubated at 25° C. with the fluorogenic substrate H-DPro-Phe-Arg-AFC and various concentrations of the test compound. Residual enzyme activity (initial rate of reaction) was determined by measuring the change in […] at 410 nm and the IC50 value for the test compound was determined.

[10] = 3 x 600 mg every 8, 4 or 2 hours

T1 sequence (P03952 391-638 limits assumed): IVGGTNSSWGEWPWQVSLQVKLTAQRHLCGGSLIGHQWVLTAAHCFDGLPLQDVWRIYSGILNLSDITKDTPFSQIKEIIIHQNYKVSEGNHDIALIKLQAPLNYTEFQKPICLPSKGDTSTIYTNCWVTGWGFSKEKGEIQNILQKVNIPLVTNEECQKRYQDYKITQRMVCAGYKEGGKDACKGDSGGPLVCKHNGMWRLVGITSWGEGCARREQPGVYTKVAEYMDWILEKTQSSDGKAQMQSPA
T1 sequence (P03952 20-390 partner limits assumed): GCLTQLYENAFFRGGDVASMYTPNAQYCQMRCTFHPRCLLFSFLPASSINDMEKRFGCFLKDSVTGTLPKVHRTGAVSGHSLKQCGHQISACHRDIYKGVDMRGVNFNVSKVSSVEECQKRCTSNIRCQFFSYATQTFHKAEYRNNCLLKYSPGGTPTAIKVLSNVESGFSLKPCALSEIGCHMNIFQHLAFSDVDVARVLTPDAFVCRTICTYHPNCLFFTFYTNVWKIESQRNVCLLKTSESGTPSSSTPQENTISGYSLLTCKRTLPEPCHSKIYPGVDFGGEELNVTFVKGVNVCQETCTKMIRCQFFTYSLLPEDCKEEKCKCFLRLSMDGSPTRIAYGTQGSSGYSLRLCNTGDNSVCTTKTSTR
PKa in DXS-activated plasma, sequence (P03952 391-638 limits assumed): as the sequence (P03952 391-638 limits assumed) above
PKa in DXS-activated plasma, sequence (P03952 20-390 partner limits assumed): as the sequence (P03952 20-390 partner limits assumed) above
T3 sequence (P03952 391-638 limits assumed): as the sequence (P03952 391-638 limits assumed) above
T3 sequence (P03952 20-390 partner limits assumed): as the sequence (P03952 20-390 partner limits assumed) above
purified PKa, sequence (P03952 391-638 limits assumed): as the sequence (P03952 391-638 limits assumed) above
purified PKa, sequence (P03952 20-390 partner limits assumed): as the sequence (P03952 20-390 partner limits assumed) above
T2 sequence (P03952 391-638 limits assumed): as the sequence (P03952 391-638 limits assumed) above
T2 sequence (P03952 20-390 partner limits assumed): as the sequence (P03952 20-390 partner limits assumed) above

For `N#Cc1cccc([C@@H](NCC2CC2)c2ccc(F)c(NC(=O)c3cc(C(F)(F)F)nn3-c3cccc(CN)c3)c2)c1` [Berotralstat], the “reported adverse reactions / risks” value [1] is given as “higher doses were associated with more gastrointestinal adverse effects”.

With `COCc1nn(Cc2ccc(Cn3ccccc3=O)cc2)cc1C(=O)NCc1nccc(OC)c1F` [Compound of Formula A, N-[(3-fluoro-4-methoxypyridin-2-yl)methyl]-3-(methoxymethyl)-1-({4-[(2-oxopyridin-1-yl)methyl]phenyl}methyl)pyrazole-4-carboxamide] the “effect on PPK cleavage” value (plasma prekallikrein) was “reduces PPK cleavage”, the “HK protection (% of HK remaining vs unactivated plasma)” value [2] was 85% and the “protection against HK cleavage” value [3] was “dose dependent protection against HK cleavage”. The “effect on generation of FXIIa” value (Factor XII (FXII)) was “reduces the generation of FXIIa”, the “effect on HK cleavage” value (HK cleavage) was “reduces HK cleavage” and the serious adverse events [4] was “No serious adverse events were reported”. For the same molecule, the tolerability signals [4] was “no tolerability signals”, the serious adverse events [5, 10] was “No serious adverse events were reported” and the “severity of reported adverse events” value [5, 10] was “mild”. The “effects on the studied ECG parameters” value ([5]; 3 x 600 mg) was “No clinically relevant effects”, the “lag time (time until appearance of catalytic activity during contact system activation)” value ([6]; 600 mg dose, tablet formulation) was “increases the time until appearance of catalytic activity” and the inhibition at 600 mg ([6]; 600 mg tablet, by 30 minutes, fed and fasted state) was greater than 90%. For the same molecule, the “detectable catalytic activity after prolonged DXS activation” value ([6]; 600 mg tablet, early time points post-dose) was “did not display detectable catalytic activity”, the “food effect on pharmacodynamic (PD) profile” value ([6]; 600 mg tablet, fed and fasted state) was “no significant food-effect” and the inhibition at 160 mg ([6]; po, cohort 6 (160 mg oral), between 45 min and 2 hr post-dose) was greater than 90%. The inhibition at 300 mg ([6]; po, cohort 7 (300 mg oral), between 20 min and 4 hr post-dose) was greater than 90%, the plasma concentration ([7]; following a dosage amount of at least about 60 mg) was “at least 500 ng/mL” and the plasma exposure ([7]; oral capsule, fasted, 5 mg to 600 mg) was “rapid and dose-dependent plasma exposure”.

For “C1-INH: C1 inhibitor (C1-INH, Sigma Cat #E0518), comparator [Compound C1-INH]”, the IC50 [8] was 1700 nM, the “inhibition of enzyme activity after activation of plasma” value [9] was “slower action” and the Kon (purified PKa) was 40000 M⁻¹ s⁻¹. For the same molecule, the IC50 (Human plasma kallikrein) was 50 nM.

In the case of Ecallantide, the “reported adverse reactions / risks” value [1] is listed as “risk of anaphylactic reactions”.

B1: lanadelumab: recombinant fully human IgG1 kappa light chain monoclonal antibody, active substance of Takhzyro® (antibody, chains of the INN, looked up, V domains shown)
VH: EVQLLESGGGLVQPGGSLRLSCAASGFTFSHYIMMWVRQAPGKGLEWVSGIYSSGGITVYADSVKGRFTISRDNSKNTLYLQMNSLRAEDTAVYYCAYRRIGVPRRDEFDIWGQGTMVTVSS
VL: DIQMTQSPSTLSASVGDRVTITCRASQSISSWLAWYQQKPGKAPKLLIYKASTLESGVPSRFSGSGSGTEFTLTISSLQPDDFATYYCQQYNTYWTFGQGTKVEIK
In the case of B1, the “reported adverse reactions / risks” value [1] is given as “hypersensitivity, injection site pain, injection site erythema, and injection site bruising”.
